Data taken from patent US9296704B2, “Substituted pyrimidines as protein kinase inhibitors” (CELGENE AVILOMICS RESEARCH, INC., priority 2007, dated 2016).

What was measured:
[1] = test system: EGFR (ErbB1) in A431 human epidermoid carcinoma cells; assay: Washout experiment for EGFR activity in A431 cells; format: cell-based; conditions: for enzyme inhibition after washout: A431 cells, 1 μM for 1 hr, EGF stimulation
Method: A431 human epidermoid carcinoma cells were grown in 6-well plates to 90% confluence and then incubated in serum-free media for 18 hr. Duplicate sets of cells were treated with 1 μM designated compound for 1 hr. One set of cells was then stimulated with 100 ng/ml EGF for 5 min, and extracts were made as described. The other set of cells was washed free of the compound with warmed compound-free medium, incubated for 2 hr, washed again, incubated another 2 hr, washed again, and then incubated another 2 hr washed again and incubated for additional 2 hr and then stimulated with EGF.

EGFR (WT) = target: T1, EGFR (WT) (Homo sapiens, UniProt P00533); assay: Omnia continuous-read kinase assay, EGFR (WT); format: biochemical; conditions: read-out: EGFR inhibtion
T1 construct: purchased Invitrogen PV3872
Method in brief: (§1)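 Enzyme pre-incubated 30 min at 27 °C with compound, then ATP/Y12-Sox peptide added; fluorescence (ex360/em485) read continuously 60 min in 20 mM Tris pH 7.5, 5 mM MgCl2, 0.2 mM DTT. WT: 5 nM enzyme, […]; T790M/L858R: 3 nM enzyme, […]. IC50 from initial velocities, variable-slope fit.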

BTK = BTK (Homo sapiens, UniProt Q06187); assay: Omnia assay for potency against BTK; format: biochemical; conditions: read-out: BTK Inhibition
Method in brief: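 BTK (5 nM) was pre-incubated 30 min at 27° C with serially diluted compounds in Tris pH 7.5/MgCl2 buffer, then started with […] and Y5-Sox peptide 10 mM (ATP KMapp ~36 mM). Fluorescence (ex360/em485) was read continuously over 60 min. IC50 came from initial velocities using a variable-slope fit.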

JAK3 = target: T2, JAK3 (Homo sapiens, UniProt P52333); assay: Omnia assay for potency against JAK3; format: biochemical; conditions: read-out: JAK3 Inhibition
T2 sequence (P52333 1-1124): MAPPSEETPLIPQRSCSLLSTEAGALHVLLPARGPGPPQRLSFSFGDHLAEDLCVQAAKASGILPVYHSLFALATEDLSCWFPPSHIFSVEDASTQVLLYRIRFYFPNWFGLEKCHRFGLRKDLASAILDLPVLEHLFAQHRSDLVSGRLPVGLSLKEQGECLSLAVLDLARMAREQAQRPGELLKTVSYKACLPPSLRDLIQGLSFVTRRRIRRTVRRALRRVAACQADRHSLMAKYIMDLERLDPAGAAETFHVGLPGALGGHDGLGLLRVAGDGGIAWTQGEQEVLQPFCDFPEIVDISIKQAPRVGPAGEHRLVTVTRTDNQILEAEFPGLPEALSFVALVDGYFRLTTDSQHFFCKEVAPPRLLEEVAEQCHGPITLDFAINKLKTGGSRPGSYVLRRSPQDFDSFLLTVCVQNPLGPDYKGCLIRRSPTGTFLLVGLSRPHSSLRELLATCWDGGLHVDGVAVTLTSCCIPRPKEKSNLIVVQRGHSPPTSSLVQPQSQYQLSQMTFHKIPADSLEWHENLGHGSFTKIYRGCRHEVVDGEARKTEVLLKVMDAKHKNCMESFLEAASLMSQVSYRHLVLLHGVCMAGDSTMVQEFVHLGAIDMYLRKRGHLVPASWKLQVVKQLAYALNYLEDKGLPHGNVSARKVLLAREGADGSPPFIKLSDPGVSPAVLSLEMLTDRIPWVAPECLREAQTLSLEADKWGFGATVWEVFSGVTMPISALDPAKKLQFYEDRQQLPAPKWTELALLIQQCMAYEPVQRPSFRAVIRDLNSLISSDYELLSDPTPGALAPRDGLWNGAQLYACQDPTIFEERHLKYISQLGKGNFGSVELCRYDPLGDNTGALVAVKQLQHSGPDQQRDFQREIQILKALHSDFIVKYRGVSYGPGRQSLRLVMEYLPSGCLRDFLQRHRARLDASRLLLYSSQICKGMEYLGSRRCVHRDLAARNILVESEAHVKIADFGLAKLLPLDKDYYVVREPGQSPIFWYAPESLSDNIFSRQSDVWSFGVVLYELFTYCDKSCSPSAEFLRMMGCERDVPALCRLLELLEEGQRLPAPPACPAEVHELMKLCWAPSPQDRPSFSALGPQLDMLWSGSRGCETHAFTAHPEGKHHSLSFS
Method in brief: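 Continuous-read Omnia kinase assay with 5 nM JAK3, 5 μM ATP (near apparent Km) and 5 μM Y12-Sox peptide in Tris pH 7.5/MgCl2 buffer; enzyme pre-incubated with compound 30 min at 27 °C. Fluorescence (ex360/em485) read over 60 min; initial velocities fitted against inhibitor concentration to give IC50.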

EGFR (T790M/L858R) = target: T3, EGFR (T790M/L858R) (Homo sapiens, UniProt P00533, L858R/T790M); assay: Omnia continuous-read kinase assay, EGFR (T790M/L858R); format: biochemical; conditions: read-out: EGFR (T790M/L858R) inhibiton
T3 construct: purchased BPS Bioscience 40350
Method in brief: as §1

ErbB1 = ErbB1 (Homo sapiens, UniProt P00533); assay: Z'-LYTE biochemical assay, ErbB1 kinase inhibition; conditions: for inhibition at 0.01 µM: @ 10 nM
Method in brief: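 Fluorescence-based coupled-enzyme Z′-LYTE format: kinase phosphorylation of a peptide substrate is read by differential protease cleavage of phosphorylated versus non-phosphorylated peptide.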

ErbB2 = ErbB2 (Homo sapiens, UniProt P04626); assay: Z'-LYTE biochemical assay, ErbB2 kinase inhibition; conditions: @ 1 μM
Method: (§2) Compounds of the present invention were assayed as inhibitors of one or more of ErbB1, ErbB2, and/or ErbB4 in a manner substantially similar to the method described by Invitrogen Corp (Invitrogen Corporation, 1600 Faraday Avenue, Carlsbad, Calif., CA; http://www.invitrogen.com/downloads/Z-LYTE_Brochure—1205.pdf) using the Z′-LYTE™ biochemical assay procedure or similar biochemical assay. The Z′-LYTE™ biochemical assay employs a fluorescence-based, coupled-enzyme format and is based on the differential sensitivity of phosphorylated and non-phosphorylated peptides to proteolytic cleavage.

ErbB4 = ErbB4 (Homo sapiens, UniProt Q15303); assay: Z'-LYTE biochemical assay, ErbB4 kinase inhibition; conditions: @ 1 μM
Method: as §2

[2] = test system: BTK signaling in Ramos cells; assay: BTK Ramos cellular assay (PLCγ2 phosphorylation); format: cell-based; conditions: Homo sapiens; Ramos cells, PLCγ2 phosphorylation; read-out: BTK Inhibition
Method: Compounds 1-13 and (I-52) were assayed in Ramos human Burkitt lymphoma cells. Ramos cells were grown in suspension in T225 flasks, spun down, resuspended in 50 mls serum-free media and incubated for 1 hour. Compound was added to Ramos cells in serum free media to a final concentration of 1, 0.1, 0.01, or 0.001 μM. Ramos cells were incubated with compound for 1 hour, washed again and resuspended in 100 ul serum-free media. Cells were then stimulated with 1 μg of goat F(ab′)2 Anti-Human IgM and incubated on ice for 10 minutes to activate B cell receptor signaling pathways. After 10 minutes, the cells were washed once with PBS and then lysed on ice with Invitrogen Cell Extraction buffer. 16 μg total protein from lysates was loaded on gels and blots were probed for phosphorylation of the BTK substrate PLCγ2. […] Additional dose response inhibition of BTK signaling with I-13 is depicted in FIG. 9.

BTK in Ramos cells = assay: Washout experiment with Ramos cells for BTK activity; format: cell-based, human; conditions: Ramos washout assay, 100 nM compound for 1 hour
Method: Ramos cells were serum starved for one hour in RPMI media+1% glutamine at 37° C. After starvation, Ramos cells were treated with 100 nM compound diluted in serum free RPMI media for 1 hour. After compound treatment, the media was removed and cells were washed with compound-free media. Subsequently, Ramos cells were washed every 2 hours and resuspended in fresh compound-free media. Cells were collected at specified timepoints, treated with 1 ug anti-human IgM (Southern Biotech cat #2022-01) for 10 minutes on ice to induce BCR signaling and then washed in PBS. Ramos cells were then lysed in Cell Extraction Buffer (Invitrogen FNN0011) supplemented with Roche complete protease inhibitor tablets (Roche 11697498001) and phosphatase inhibitors (Roche 04 906 837 001) and 18 ug total protein lysate was loaded in each lane. Inhibition of BTK kinase activity was assayed by measuring its substrate (PLCγ2) phosphorylation by western blot with phospho-specific antibodies from Cell Signaling Technologies cat#3871. FIG. 10 depicts the results of compound I-13 in the washout experiment at 0 hour, 4 hour, 6 hour, and 8 hour time points.

T1 sequence (P00533 25-1210): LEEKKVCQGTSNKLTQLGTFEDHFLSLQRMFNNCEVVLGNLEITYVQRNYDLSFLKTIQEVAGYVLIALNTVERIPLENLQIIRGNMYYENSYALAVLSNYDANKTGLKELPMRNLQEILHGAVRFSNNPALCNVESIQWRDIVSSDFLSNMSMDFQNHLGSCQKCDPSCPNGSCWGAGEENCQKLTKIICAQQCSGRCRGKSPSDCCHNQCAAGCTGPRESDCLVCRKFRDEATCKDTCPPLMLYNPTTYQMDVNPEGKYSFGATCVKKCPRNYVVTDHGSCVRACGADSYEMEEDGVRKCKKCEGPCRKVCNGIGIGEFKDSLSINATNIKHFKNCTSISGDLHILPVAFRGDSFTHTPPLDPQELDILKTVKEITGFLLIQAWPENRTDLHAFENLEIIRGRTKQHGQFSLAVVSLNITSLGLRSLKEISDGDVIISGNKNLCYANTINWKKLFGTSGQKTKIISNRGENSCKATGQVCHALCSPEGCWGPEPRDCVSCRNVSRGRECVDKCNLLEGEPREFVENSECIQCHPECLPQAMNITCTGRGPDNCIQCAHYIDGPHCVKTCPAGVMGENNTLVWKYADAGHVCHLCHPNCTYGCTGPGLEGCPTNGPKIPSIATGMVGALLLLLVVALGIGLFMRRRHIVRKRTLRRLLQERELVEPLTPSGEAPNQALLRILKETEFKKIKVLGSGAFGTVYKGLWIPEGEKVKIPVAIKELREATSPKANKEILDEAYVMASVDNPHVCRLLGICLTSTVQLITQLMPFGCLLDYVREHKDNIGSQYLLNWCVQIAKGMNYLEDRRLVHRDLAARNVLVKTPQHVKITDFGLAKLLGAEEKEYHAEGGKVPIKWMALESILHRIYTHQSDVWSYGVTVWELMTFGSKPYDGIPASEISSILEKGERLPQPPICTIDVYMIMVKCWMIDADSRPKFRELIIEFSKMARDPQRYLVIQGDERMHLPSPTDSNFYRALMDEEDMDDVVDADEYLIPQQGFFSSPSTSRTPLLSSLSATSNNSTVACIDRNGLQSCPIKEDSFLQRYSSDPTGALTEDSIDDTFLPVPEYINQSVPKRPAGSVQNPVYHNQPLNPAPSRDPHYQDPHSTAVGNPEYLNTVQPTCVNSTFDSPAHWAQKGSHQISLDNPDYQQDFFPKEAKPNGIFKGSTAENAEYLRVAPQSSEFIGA
Sequence of ErbB1 (P00533 25-1210): as above
Sequence of ErbB4 (Q15303 26-1308): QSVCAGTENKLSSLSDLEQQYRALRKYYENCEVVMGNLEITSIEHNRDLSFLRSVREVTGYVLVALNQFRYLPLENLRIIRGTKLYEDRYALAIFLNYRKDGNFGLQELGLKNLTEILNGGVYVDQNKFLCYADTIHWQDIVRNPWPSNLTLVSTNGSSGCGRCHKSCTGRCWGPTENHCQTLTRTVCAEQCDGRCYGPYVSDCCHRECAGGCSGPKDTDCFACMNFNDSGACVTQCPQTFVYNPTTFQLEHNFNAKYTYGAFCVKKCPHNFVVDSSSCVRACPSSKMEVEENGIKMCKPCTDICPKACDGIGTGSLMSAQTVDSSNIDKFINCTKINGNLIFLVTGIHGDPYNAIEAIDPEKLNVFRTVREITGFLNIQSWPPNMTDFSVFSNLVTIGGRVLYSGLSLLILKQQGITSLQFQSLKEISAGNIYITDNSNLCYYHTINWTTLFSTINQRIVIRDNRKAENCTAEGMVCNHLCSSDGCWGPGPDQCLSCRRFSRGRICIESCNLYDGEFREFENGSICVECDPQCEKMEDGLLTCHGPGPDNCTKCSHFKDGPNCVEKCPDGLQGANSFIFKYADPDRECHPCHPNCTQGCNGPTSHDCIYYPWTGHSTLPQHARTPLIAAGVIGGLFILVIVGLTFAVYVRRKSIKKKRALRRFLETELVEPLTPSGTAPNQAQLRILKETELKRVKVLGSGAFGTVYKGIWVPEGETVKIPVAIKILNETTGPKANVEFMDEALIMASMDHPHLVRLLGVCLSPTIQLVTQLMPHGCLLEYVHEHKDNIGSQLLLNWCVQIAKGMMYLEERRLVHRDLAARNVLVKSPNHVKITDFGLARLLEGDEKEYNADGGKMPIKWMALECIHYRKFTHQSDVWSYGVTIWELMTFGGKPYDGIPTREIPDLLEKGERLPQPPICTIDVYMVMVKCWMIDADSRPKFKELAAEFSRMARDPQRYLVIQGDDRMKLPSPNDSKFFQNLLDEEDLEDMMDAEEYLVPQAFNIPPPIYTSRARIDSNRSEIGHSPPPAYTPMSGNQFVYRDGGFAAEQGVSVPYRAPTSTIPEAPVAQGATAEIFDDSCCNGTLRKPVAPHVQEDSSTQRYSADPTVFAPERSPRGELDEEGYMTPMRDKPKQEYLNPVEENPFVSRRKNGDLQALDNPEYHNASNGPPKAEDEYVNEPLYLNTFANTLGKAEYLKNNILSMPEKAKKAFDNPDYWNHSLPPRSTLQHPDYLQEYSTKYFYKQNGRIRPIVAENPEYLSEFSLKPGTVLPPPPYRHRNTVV
T3 sequence (P00533 25-1210 T790M/L858R): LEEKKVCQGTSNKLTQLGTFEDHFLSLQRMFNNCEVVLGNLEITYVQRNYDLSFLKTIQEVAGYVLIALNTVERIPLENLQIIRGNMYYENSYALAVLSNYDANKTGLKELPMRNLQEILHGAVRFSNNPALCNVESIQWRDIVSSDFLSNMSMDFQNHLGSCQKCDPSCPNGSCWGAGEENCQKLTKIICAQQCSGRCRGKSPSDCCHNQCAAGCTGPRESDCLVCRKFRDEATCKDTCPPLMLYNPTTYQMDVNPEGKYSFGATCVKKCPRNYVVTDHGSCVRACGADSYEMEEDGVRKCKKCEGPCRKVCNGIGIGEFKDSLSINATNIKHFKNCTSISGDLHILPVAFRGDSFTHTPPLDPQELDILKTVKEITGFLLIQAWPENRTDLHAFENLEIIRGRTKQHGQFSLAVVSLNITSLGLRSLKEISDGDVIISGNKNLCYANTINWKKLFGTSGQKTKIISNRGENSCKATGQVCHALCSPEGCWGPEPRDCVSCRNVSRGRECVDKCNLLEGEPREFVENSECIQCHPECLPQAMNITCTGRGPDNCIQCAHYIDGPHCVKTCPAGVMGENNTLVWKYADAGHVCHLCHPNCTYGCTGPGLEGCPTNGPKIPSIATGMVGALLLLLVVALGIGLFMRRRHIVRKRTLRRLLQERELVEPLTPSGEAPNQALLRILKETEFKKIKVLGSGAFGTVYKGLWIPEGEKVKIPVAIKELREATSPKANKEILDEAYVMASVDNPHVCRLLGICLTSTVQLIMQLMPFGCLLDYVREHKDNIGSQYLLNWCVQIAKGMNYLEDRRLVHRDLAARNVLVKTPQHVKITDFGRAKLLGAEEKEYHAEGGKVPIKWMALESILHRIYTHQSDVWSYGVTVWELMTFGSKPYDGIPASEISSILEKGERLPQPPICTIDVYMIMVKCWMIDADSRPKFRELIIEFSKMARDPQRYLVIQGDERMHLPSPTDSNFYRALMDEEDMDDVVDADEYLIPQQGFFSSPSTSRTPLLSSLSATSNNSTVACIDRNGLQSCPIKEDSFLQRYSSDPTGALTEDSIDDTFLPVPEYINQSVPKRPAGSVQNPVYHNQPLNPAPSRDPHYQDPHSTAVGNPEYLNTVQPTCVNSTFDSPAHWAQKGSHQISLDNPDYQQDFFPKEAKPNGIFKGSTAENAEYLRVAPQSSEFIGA

| SMILES | enzyme inhibition after washout [1] | IC50 (EGFR (WT)) | IC50 (BTK) | IC50 (JAK3) | type of binding to ErbB1 (irreversible / reversible) ([1]; washout experiment, FIG. 2) | IC50 (EGFR (T790M/L858R)) | inhibition at 1 µM (ErbB1) | inhibition at 1 µM (ErbB2) | inhibition at 1 µM (ErbB4) | IC50 [2] | BTK Inhibition Type (BTK in Ramos cells) | inhibition at 0.01 µM (ErbB1) | inhibition at 0.1 µM (ErbB1; @ 100 nM) |
| --- | --- | --- | --- | --- | --- | --- | --- | --- | --- | --- | --- | --- | --- |
| CCC(=O)Nc1cccc(Nc2cc(Nc3cccc(Br)c3)ncn2)c1 [I^R-3, N-{3-[6-(3-bromophenylamino)-pyrimidin-4-ylamino]phenyl}-propionamide, reference compound] | washed away |  |  |  |  |  |  |  |  |  |  |  |  |
| C=CC(=O)Nc1ccc(Nc2cc(Nc3cccc(Br)c3)ncn2)cc1 [I-93, N-(4-[6-(3-bromophenylamino)-pyrimidin-4-ylamino]phenyl)-2-propenamide] | washed away | ≤ 10 nM | 1000 to 10000 nM | ≥ 10000 nM | reversibly binds to ErbB1 |  |  |  |  |  |  |  |  |
| Cc1cccc(Nc2cc(Nc3cccc(NC(=O)/C=C/CN(C)C)c3)ncn2)c1 [I-17, (E)-N-{3-[6-(3-methylphenylamino)-pyrimidin-4-ylamino]phenyl}-4-dimethylamino-2-butenamide] |  | ≤ 10 nM | ≤ 10 nM | 10 to 100 nM |  | 10 to 100 nM | 95% | 89% | 94% | ≥ 1000 nM |  |  |  |
| CN(C)C/C=C/C(=O)Nc1cccc(Nc2cc(Oc3ccc(Oc4ccccc4)cc3)ncn2)n1 [I-82] |  | ≤ 10 nM | ≤ 10 nM | 10 to 100 nM |  |  |  |  |  | ≤ 10 nM | irreversible |  |  |
| C=CS(=O)(=O)Nc1cccc(Nc2cc(Nc3cccc(C)c3)ncn2)c1 [I-5, N-{3-[6-(3-methylphenylamino)-pyrimidin-4-ylamino]phenyl}-ethenesulfonamide] |  | ≤ 10 nM | ≤ 10 nM | ≤ 10 nM |  | ≤ 10 nM |  | 86% | 95% | 100 to 1000 nM |  | 100% |  |
| C=CC(=O)Nc1cccc(Nc2cc(Nc3ccc(OCc4cccc(F)c4)c(Cl)c3)ncn2)c1 [I-6, N-{3-[6-(3-chloro-4-(3-fluorophenyl)methoxyphenylamino)-pyrimidin-4-ylamino]phenyl}-2-propenamide] |  | 10 to 100 nM | 100 to 1000 nM | 1000 to 10000 nM |  | 10 to 100 nM |  | 84% | 97% |  |  | 49% | 100% |
| CN(C)C/C=C/C(=O)Nc1cccc(Nc2cc(Nc3ccc(OCc4ccccn4)c(Cl)c3)ncn2)c1 [I-19, (E)-N-(3-(6-(3-chloro-4-(pyridin-2-ylmethoxy)phenylamino)-pyrmidin-4-ylamino)phenyl)-4-(dimethylamino)but-2-enamide] |  | ≤ 10 nM | 10 to 100 nM | 100 to 1000 nM |  | ≤ 10 nM | 96% | 98% | 97% |  |  |  |  |
| C=CC(=O)Nc1cccc(Nc2cc(Nc3cccc(C)c3)ncn2)c1 [I-4, N-{3-[6-(3-methylphenylamino)-pyrimidin-4-ylamino]phenyl}-2-propenamide] |  | ≤ 10 nM | ≤ 10 nM | ≤ 10 nM |  | 10 to 100 nM |  | 86% | 78% |  |  | 100% |  |
